The results in this text go back to article PMC3250100 (The Journal of General Physiology, 2012).

The experiment deals with Cx50 (Mus musculus, UniProt P28236). In kind it is biochemical.
Sequence of Cx50 (P28236 2-440): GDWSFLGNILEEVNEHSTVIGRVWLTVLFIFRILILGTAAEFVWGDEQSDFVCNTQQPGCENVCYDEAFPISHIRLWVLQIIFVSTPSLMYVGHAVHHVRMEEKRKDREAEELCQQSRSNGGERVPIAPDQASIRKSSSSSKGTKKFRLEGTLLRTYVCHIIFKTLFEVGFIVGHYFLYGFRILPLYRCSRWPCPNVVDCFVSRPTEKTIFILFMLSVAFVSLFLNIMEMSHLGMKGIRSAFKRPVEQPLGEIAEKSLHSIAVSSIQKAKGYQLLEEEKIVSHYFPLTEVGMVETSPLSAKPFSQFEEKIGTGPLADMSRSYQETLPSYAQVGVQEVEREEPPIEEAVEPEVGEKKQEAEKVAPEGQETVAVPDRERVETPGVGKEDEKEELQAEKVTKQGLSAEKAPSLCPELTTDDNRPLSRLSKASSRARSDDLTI

`C=C[C@H]1C[N+]2(Cc3ccccc3)CC[C@H]1C[C@H]2[C@H](O)c1ccnc2ccc(OC)cc12` [BQ+, N-benzylquininium]: 340 µM corresponded to half-maximal inhibition (IC50).
